# Source: patent US10568949B2, “Method of eliciting an anti-tumor immune response with controlled delivery of TLR agonists in porous polymerlc devices” (President and Fellows of Harvard College, priority 2008, dated 2020)
# Where “and” joins values, the source holds several entries; their conditions need not be identical. Equal values may be shown once.
# B1: granulocyte macrophage colony stimulating factor (protein, UniProt P01587 18-141, looked up)
# Granulocyte-macrophage …: APTRSPITVTRPWKHVEAIKEALNLLDDMPVTLNEEVEVVSNEFSFKKLTCVQTRLKIFEQGLRGNFTKLKGALNMTASYYQTYCPPTPETDCETQVTTYADFIDSLKTFLTDIPFECKKPGQK
# notes: cytokine encapsulated in and released from PLG matrices to recruit DCs
# Assays:
# T cells = experiment: T cell infiltration at PLG vaccine site (flow cytometry); assay type: in vivo, C57BL/6J mice; conditions: with tumor lysate and GM-CSF, day 12
# Protocol: Blank PLG matrices and matrices containing 3000 ng of GM-CSF alone or in combination with either 1, 10, 50, or 100 μg of CpG-ODN (studies were also performed with tumor lysates copresented with either 3000 ng of GM-CSF or 100 μg of CpG-ODN alone or in combination) were implanted into subcutaneous pockets on the back of 7- to 9-week-old male C57BL/6J mice. For histological examination, scaffolds were excised and fixed in Z-fix solution (Anatech), embedded in paraffin, and stained with hematoxylin and eosin (H&E). To analyze DC recruitment, scaffolds were excised at various time points and digested the ingrown tissue into single-cell suspensions with a collagenase solution (250 U/ml; Worthington) that was agitated at 37° C. for 45 min. The cell suspensions were then poured through a 40-μm cell strainer to isolate cells from scaffold particles, and the cells were pelleted and washed with cold PBS and counted with a Z2 coulter counter (Beckman Coulter). […] To assess T cell infiltration, PE-Cy7-conjugated CD3 stains were performed in conjunction with APC-conjugated CD8a (CD8 T cells), FITC-conjugated CD4 (CD4 T cells), and PE-conjugated FoxP3 (Treg) and analyzed with flow cytometry. Cells were gated according to positive FITC, APC, and PE with isotype controls, and the percentage of cells staining positive for each surface antigen was recorded.
# [1] = In vitro release / retention of GM-CSF, cytokines and TLR agonists from PLG scaffolds; assay type: physicochemical
# Protocol: To determine the incorporation efficiency of CpG-ODN incorporation, PLG scaffolds were prepared with 50 ug of CpG-ODN and digested in 1 ml of chloroform (Sigma Aldrich, and washed with 2 mls of aqueous buffer. The aqueous phase was isolated and the amount of CpG-ODN incorporated was determined by absorbance readings (260/280 and 260/230 ratios calculated at 0.2 mm pathlength) using a Nanodrop instrument, ND1000 (Nanodrop technologies, Wilmington, Del.). Similarly, to determine CpG-ODN release kinetics CpG-ODN loaded scaffolds were placed in 1 ml of Phosphate Buffer Solution (PBS) in an incubator (37° C.). At various timepoints, the PBS release media was collected and replaced with fresh media. The total amount of CpG-ODN incorporated into PLG scaffolds and released into PBS over time was analyzed and recorded.
# B16-F10 melanoma cells [2] = experiment: Example 7: prophylactic vaccination, B16-F10 melanoma; assay type: in vivo, C57BL/6J mice; parameters: concentration or dose not given beside the values; conditions: for survival rate: B16-F10 tumor lysates and GM-CSF, with or without TLR agonist, challenge at day 14
# [3] = tested on: IL-12p70, IFN-α, IFN-γ, and TGF-β; experiment: In vivo cytokine concentrations at matrix implant site (ELISA); parameters: species or system C57BL/6J mice
# Protocol: After centrifugation, the concentrations of IL-12, IFN-α, IFN-γ, and TGF-β in the supernatant were then analyzed with enzyme-linked immunosorbent assay (R&D Systems) according to the manufacturer's instructions.
# B16-F10 melanoma cells [4] = experiment: Prophylactic vaccination, B16-F10 melanoma tumor challenge; conditions: for mouse survival: antigen matrices, CpG and GM-CSF together versus GM-CSF alone
# Protocol: PLG scaffolds with melanoma tumor lysates and various dosages of GM-CSF and/or 10 μg PEI-CpG-ODN condensates were implanted subcutaneously into the lower left flank of C57BL/6J mice. Animals were challenged 14 days later with a subcutaneous injection of 10^5 B16-F10 melanoma cells (ATCC, Manassas, N.J.) in the back of the neck. Animals were monitored for the onset of tumor growth (approximately 1 mm^3) and sacrificed for humane reasons when tumors grew to 20-25 mm (longest diameter).
# PLG scaffolds with melanoma tumor lysates and various dosages of GM-CSF and/or various quantities of PEI-CpG-ODN condensates were implanted subcutaneously into the lower left flank of C57BL/6J mice. For prophylactic vaccinations, animals were challenged 14 days later with a subcutaneous injection of 10^5 B16-F10 melanoma cells [American Type Culture Collection (ATCC)] in the back of the neck. Animals were monitored for the onset of tumor growth (˜1 mm^3) and killed for humane reasons when tumors grew to 20 to 25 mm (longest diameter).
# dendritic cells = experiment: Example 7: DC recruitment and activation in matrices with GM-CSF and TLR agonists (FACS, day 7); assay type: in vivo, C57BL/6J mice
# Source text: The cell suspensions were then poured through a 40 μm cell strainer to isolate cells from scaffold particles and the cells were pelleted and washed with cold PBS and counted using a Z2 coulter counter (Beckman Coulter). To assess, DC infiltration and activation, subsets of the total cell population isolated from PLG matrices were then stained with primary antibodies (BD Pharmingen, San Diego, Calif.) conjugated to fluorescent markers to allow for analysis by flow cytometry. APC-conjugated CD11c (dendritic cell marker), FITC-conjugated MHCII and PE-conjugated CD86 (B7, costimulatory molecule) stains were conducted for DC recruitment and activation analysis. To further delineate the presence of specific DC subsets, cells were also stained with APC-conjugated CD11c and PE-conjugated PDCA-1 (plasmacytoid DC marker) or APC-conjugated CD11c and PE-conjugated CD8 (CD8 DCs). To assess T-cell infiltration PE-Cy7 conjugated CD3 stains were performed in conjunction with APC-conjugated CD8a (CD8 T cells), and PE-conjugated FoxP3 (Treg) and analyzed with flow cytometry. Cells were gated according to single positive FITC, APC and PE stainings and using isotype controls. The percentage of cells staining positive for each surface antigen was recorded. To examine the ability of PLG matrices to recruit and activate dendritic cells in vivo, matrices delivering GM-CSF in combination with danger signals were implanted subcutaneously into the backs of C57BL/6J mice. The magnitude of DC infiltration and activation into the matrices was determined by FACS analysis of cell populations isolated from the polymeric material after 7 days.
# B16-F10 melanoma tumors = experiment: T-cell infiltration into tumor tissue (immunohistochemistry); assay type: in vivo, C57BL/6J mice
# Protocol: PLG scaffolds with melanoma tumor lysates and various dosages of GM-CSF and/or 10 μg PEI-CpG-ODN condensates were implanted subcutaneously into the lower left flank of C57BL/6J mice. Animals were challenged 14 days later with a subcutaneous injection of 10^5 B16-F10 melanoma cells (ATCC, Manassas, N.J.) in the back of the neck. Animals were monitored for the onset of tumor growth (approximately 1 mm^3) and sacrificed for humane reasons when tumors grew to 20-25 mm (longest diameter). For histological examination, tumors were biopsied at days 20-25 after injection and fixed in Z-fix (Anatech, Battle Creek, Mich.) and stained for hematoxylin and eosin. To examine tumor tissue for T-cell infiltration, immunoperoxidase staining was performed using the avidin-biotin-peroxidase Vectastain Elite ABC kit (Vector Laboratories). The primary antibodies used were GK 1.5 (CD4), and 53-6.72 (CD8) and staining was developed using DAB+ substrate chromogen (DAKO, Carpinteria, Calif.). Sections from tumor samples (n=3 or 4) were visualized at 40× and 100× with a Nikon light microscope (Indianapolis, Ind.) and positively stained T-cells were counted manually.
# TRP2-specific CTLs = TRP2-specific CTLs in spleens (pentamer staining); assay type: in vivo, C57BL/6J mice; conditions: GM-CSF, antigen
# Source text: […] These cells were initially stained with APC-H-2Kb-TRP2 pentamers (Proimmune) and subsequently stained with PE-conjugated monoclonal antibody to CD8 (BD Pharmingen) before being analyzed by flow cytometry.
# [5] = optimal GM-CSF exposure (400 ng) with tumor antigen
molecule,measurement,setting,value
CpG-ODN 1826,ratio of CD8 CTLs to FoxP3 Treg cells at vaccine site (factor),T cells,~25
same,retained in the PLG matrices,[1]; over 25 days,> 80%
same,survival rate,B16-F10 melanoma cells [2],90%
same,long-term survival,"B16-F10 melanoma cells [2]; wildtype mice, CpG-ODN loaded PLG vaccines",100%
same,local production of IFN-α,[3]; high doses of CpG-ODN,~1010 pg/mL
same,local production of IL-12,[3]; high doses of CpG-ODN,150 pg/mL
same,mouse survival,B16-F10 melanoma cells [4],90%
same,survival rate,"B16-F10 melanoma cells [4]; lysate, GM-CSF and 10 μg CpG-ODN",50% and 45%
same,survival rate,"B16-F10 melanoma cells [4]; lysate, GM-CSF and 10 μg CpG-ODN, listed as CpG",50%
same,survival rate,"B16-F10 melanoma cells [4]; lysate, GM-CSF and 50 μg CpG-ODN",60%
same,survival rate,"B16-F10 melanoma cells [4]; lysate, GM-CSF and 100 μg CpG-ODN",90%
same,vaccinated mice surviving B16-F10 challenge,"B16-F10 melanoma cells [4]; tumor lysates with CpG-ODN (1, 10, 50 or 100), no GM-CSF",10 to 30% and 20% and 10-30%
same,"CD8(+) DCs at implant site, higher than controls",dendritic cells; with GM-CSF,9 fold
same,"CD11c(+) cells positive for MHCII(+) and CD86(+), of total cells recruited",dendritic cells; with GM-CSF,approximately 30%
same,enhancement of total number of recruited DCs compared to GM-CSF delivery alone,dendritic cells; with GM-CSF,2.5 fold
same,increase in total number of activated DCs relative to control matrices,dendritic cells; with GM-CSF,~23 fold
same,increase in CD8(+) T-cell infiltration into tumors over controls,"B16-F10 melanoma tumors; infection mimics, 10 μg CpG-ODN dose",~3 fold
same,TRP2-specific CD8 T cells,TRP2-specific CTLs; CpG dose 50 μg,0.3 % splenocytes
B1,ratio of CD8 CTLs to FoxP3 Treg cells at vaccine site (factor),T cells,almost even ratio
same,incorporated cytokine released from scaffolds,"[1]; by day 4, in vitro",approximately 43%
same,GM-CSF protein released from PLG matrices,"[1]; by day 10, in vitro",approximately 60%
same,daily release of protein,[1]; over the next 23 days after day 4,approximately 0.9%
same,bioactive GM-CSF load released from PLG matrices,[1]; within the first 5 days,approximately 60%
same,survival rate,B16-F10 melanoma cells [2],10%
same,factor of increase in TGFβ concentrations at vaccine site,[3]; GM-CSF and tumor lysate in matrix,10
same,animals cured / with protective anti-tumor immunity,"B16-F10 melanoma cells [4]; GM-CSF with antigen, optimal GM-CSF dose",23%
same,mouse survival,B16-F10 melanoma cells [4],20%
same,animal survival,"B16-F10 melanoma cells [4]; lysate, GM-CSF, CpG dose 0 μg",23%
same,delay of tumor formation,"B16-F10 melanoma cells [4]; optimal GM-CSF dose with antigen, in 50% of the animals",approximately 40 days
same,increase in average time before tumor formation compared to antigen alone,B16-F10 melanoma cells [4]; [5],3 fold
same,increase in average time before tumor formation over non-optimal GM-CSF exposure,B16-F10 melanoma cells [4]; [5],~2 fold
same,CD11c(+) cells in matrices,dendritic cells; GM-CSF alone,241000 cells
same,CD86 expression,dendritic cells; GM-CSF alone,4.58 % of CD11c(+) cells
same,MHCII expression,dendritic cells; GM-CSF alone,2.57 % of total CD11c(+) cells
same,increase in CD8(+) cytotoxic T-cell numbers in tumors over blank controls,B16-F10 melanoma tumors; appropriate GM-CSF presentation with antigen,2 fold
same,TRP2-specific CD8 T cells,TRP2-specific CTLs; CpG dose 0 μg,0.2 % splenocytes
